pIC50: −log10 of the molar value.
Experiments:
Assay type in all cases: biochemical
[1] = biological target: T1, KRAS WT (Homo sapiens, UniProt P01116); test: HTRF KRAS-SOS1 interaction assay, wildtype KRAS; conditions: binned ≤2 μM / >2 μM, read-out: Inhibition of KRAS WT (IC50)
T1 construct: made in house; host or cells: E. coli, e.g. BL21 (DE3)
Procedure, shortened: (§1)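 Inhibition of the KRAS–SOS1 interaction was measured by HTRF (ex 337, em 620/665 nm) after ≥~10 min incubation. Donor: anti-GST-Eu on GST-KRAS; acceptor: anti-6His-XL665 on His-hSOS1, in HEPES pH 7.4 buffer with DTT, BSA and Igepal. Compounds in duplicate at 0.01–10 μM; IC50 from emission ratio.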

[2] = biological target: T2, KRAS G12S (Homo sapiens, UniProt P01116, G12S); test: HTRF KRAS-SOS1 interaction assay, KRAS G12S; conditions: binned ≤2 μM / >2 μM, read-out: Inhibition of KRAS G12S (IC50)
T2 construct: made in house; host or cells: E. coli, e.g. BL21 (DE3)
T2 sequence (P01116 1-188 isoform P01116-2 G12S): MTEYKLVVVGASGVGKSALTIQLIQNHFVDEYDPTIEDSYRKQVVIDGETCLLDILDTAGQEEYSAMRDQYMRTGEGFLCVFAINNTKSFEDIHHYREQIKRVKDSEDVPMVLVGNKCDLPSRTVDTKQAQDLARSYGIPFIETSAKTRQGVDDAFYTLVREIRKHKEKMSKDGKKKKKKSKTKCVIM
Procedure, shortened: as §1

[3] = biological target: T3, KRAS G12V (Homo sapiens, UniProt P01116, G12V); test: HTRF KRAS-SOS1 interaction assay, KRAS G12V; conditions: binned ≤2 μM / >2 μM, read-out: Inhibition of KRAS G12V (IC50)
T3 construct: made in house; host or cells: E. coli, e.g. BL21 (DE3)
T3 sequence (P01116 1-188 isoform P01116-2 G12V): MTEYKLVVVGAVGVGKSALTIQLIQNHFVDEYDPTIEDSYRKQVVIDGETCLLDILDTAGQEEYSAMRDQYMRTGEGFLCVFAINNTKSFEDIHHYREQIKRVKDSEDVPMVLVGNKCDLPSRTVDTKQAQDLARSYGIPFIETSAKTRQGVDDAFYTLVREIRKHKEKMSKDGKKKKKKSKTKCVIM
Procedure, shortened: as §1

[4] = biological target: T4, KRAS G12D (Homo sapiens, UniProt P01116, G12D); test: HTRF KRAS-SOS1 interaction assay, KRAS G12D; conditions: binned ≤2 μM / >2 μM, read-out: Inhibition of KRAS G12D (IC50)
T4 construct: made in house; host or cells: E. coli, e.g. BL21 (DE3)
T4 sequence (P01116 1-188 isoform P01116-2 G12D): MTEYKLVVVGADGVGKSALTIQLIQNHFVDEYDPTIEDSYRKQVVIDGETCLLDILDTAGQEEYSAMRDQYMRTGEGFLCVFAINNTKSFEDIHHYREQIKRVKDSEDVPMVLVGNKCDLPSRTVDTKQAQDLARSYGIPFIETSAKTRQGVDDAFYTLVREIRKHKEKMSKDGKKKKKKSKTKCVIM
Procedure, shortened: as §1

T1 sequence (P01116 1-188 isoform P01116-2): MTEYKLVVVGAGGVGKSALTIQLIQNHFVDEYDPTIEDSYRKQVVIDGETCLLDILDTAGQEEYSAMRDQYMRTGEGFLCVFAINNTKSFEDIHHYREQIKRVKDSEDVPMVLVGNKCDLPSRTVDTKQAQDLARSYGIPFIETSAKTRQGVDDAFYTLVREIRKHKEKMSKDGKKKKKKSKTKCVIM

Compound | pIC50 [1] | pIC50 [2] | pIC50 [3] | pIC50 [4]
C[C@H](c1cccnc1N)N1CCOc2c(C3CC3)c(-c3ccc(F)c4sc(N)c(C#N)c34)c(F)c3nc(OC[C@@]45CCCN4C[C@H](F)C5)nc1c23 (single isomer, unassigned) [Compound 727] | ≥ 5.70 | ≥ 5.70 | ≥ 5.70 | ≥ 5.70
C[C@H](c1cccnc1N)N1CCOc2c(Cl)c(-c3ccc(F)c4sc(N)c(C#N)c34)c(F)c3nc(OC[C@@]45CCCN4C[C@]4(CC4(F)F)C5)nc1c23 [Compound 918, 2-amino-4-(4-((R)-1-(2-aminopyridin-3-yl)ethyl)-8-chloro-2-(((1R,7a′S)-2,2-difluorodihydro-1′H,3′H-spiro[cyclopropane-1,2′-pyrrolizin]-7a′(5′H)-yl)methoxy)-10-fluoro-5,6-dihydro-4H-[1,4]oxazepino[5,6,7-de]quinazolin-9-yl)-7-fluorobenzo[b]thiophene-3-carbonitrile] | ≥ 5.70 | ≥ 5.70 | ≥ 5.70 | ≥ 5.70
C[C@H](c1cc(F)cnc1N)N1CCOc2c(C(F)(F)F)c(-c3ccc(F)c4sc(N)c(C#N)c34)c(F)c3nc(OC[C@@]45CCCN4C[C@H](F)C5)nc1c23 (single isomer, unassigned) [Compound 864] | ≥ 5.70 | ≥ 5.70 | ≥ 5.70 | ≥ 5.70
C[C@H](c1cc(F)cnc1N)N1CCOc2c(C(F)(F)F)c(-c3ccc(F)c4sc(N)c(C#N)c34)c(F)c3nc(OC[C@@]45CCCN4C[C@@]4(CC4(F)F)C5)nc1c23 [Compound 878, 2-amino-4-(4-((R)-1-(2-amino-5-fluoropyridin-3-yl)ethyl)-2-(((1S,7a′S)-2,2-difluorodihydro-1′H,3′H-spiro[cyclopropane-1,2′-pyrrolizin]-7a′(5′H)-yl)methoxy)-10-fluoro-8-(trifluoromethyl)-5,6-dihydro-4H-[1,4]oxazepino[5,6,7-de]quinazolin-9-yl)-7-fluorobenzo[b]thiophene-3-carbonitrile] | ≥ 5.70 | ≥ 5.70 | ≥ 5.70 | ≥ 5.70
C[C@H](c1cccnc1N)N1CCOc2c(C(F)(F)F)c(-c3ccc(F)c4sc(N)c(C#N)c34)c(F)c3nc(OCC4(CN5CC[C@@H](F)C5)CC4)nc1c23 [Compound 698, 2-amino-4-(4-((R)-1-(2-aminopyridin-3-yl)ethyl)-10-fluoro-2-((1-(((R)-3-fluoropyrrolidin-1-yl)methyl)cyclopropyl)methoxy)-8-(trifluoromethyl)-5,6-dihydro-4H-[1,4]oxazepino[5,6,7-de]quinazolin-9-yl)-7-fluorobenzo[b]thiophene-3-carbonitrile] | ≥ 5.70 | ≥ 5.70 | ≥ 5.70 | ≥ 5.70
C[C@H](c1cccnc1N)N1CCOc2c(Cl)c(-c3ccc(F)c4sc(N)c(C#N)c34)c(F)c3nc(OCC45CCCC4CCC5)nc1c23 (single isomer, unassigned) [Compound 674] | < 5.70 | < 5.70 | < 5.70 | < 5.70
CCON=C1CN2CCC[C@@]2(COc2nc3c4c(c(Cl)c(-c5ccc(F)c6sc(N)c(C#N)c56)c(F)c4n2)OCCN3[C@H](C)c2cccnc2N)C1 (single isomer, unassigned) [Compound 700] | ≥ 5.70 | ≥ 5.70 | ≥ 5.70 | ≥ 5.70
C[C@H](c1nccnc1N)N1CCOc2c(C(F)(F)F)c(-c3ccc(F)c4sc(N)c(C#N)c34)c(F)c3nc(OC[C@@]45CCCN4CC(=C(F)F)C5)nc1c23 [Compound 876, 2-amino-4-(4-((R)-1-(3-aminopyrazin-2-yl)ethyl)-2-(((S)-2-(difluoromethylene)tetrahydro-1H-pyrrolizin-7a(5H)-yl)methoxy)-10-fluoro-8-(trifluoromethyl)-5,6-dihydro-4H-[1,4]oxazepino[5,6,7-de]quinazolin-9-yl)-7-fluorobenzo[b]thiophene-3-carbonitrile] | ≥ 5.70 | ≥ 5.70 | ≥ 5.70 | ≥ 5.70
N#Cc1c(N)sc2c(F)ccc(-c3c(C(F)(F)F)c4c5c(nc(OC[C@@]67CCCN6C[C@H](F)C7)nc5c3F)N([C@H](CC3CC3)c3cccnc3N)CCO4)c12 (single isomer, unassigned) [Compound 753] | ≥ 5.70 | ≥ 5.70 | ≥ 5.70 | ≥ 5.70

The remaining lines, values ahead:

pIC50 [1] | pIC50 [2] | pIC50 [3] | pIC50 [4] | Compound
≥ 5.70 | ≥ 5.70 | ≥ 5.70 | ≥ 5.70 | C=CC[C@H](c1cccnc1N)N1C[C@H](C)Oc2nc(-c3cc(N)c(F)c(C)c3C(F)(F)F)c(F)c3nc(OC[C@@]45CCCN4C[C@H](F)C5)nc1c23 (single isomer, unassigned) [Compound 746]
≥ 5.70 | ≥ 5.70 | ≥ 5.70 | ≥ 5.70 | C[C@H](c1cccnc1N)N1CCOc2c(Cl)c(-c3ccc(F)c4sc(N)c(C#N)c34)c(F)c3nc(OC[C@@]45CCCN4CC(=C(F)F)C5)nc1c23 (atropisomer, axis not shown) [Compound 636, 2-amino-4-((R)-4-((R)-1-(2-aminopyridin-3-yl)ethyl)-8-chloro-2-(((S)-2-(difluoromethylene)tetrahydro-1H-pyrrolizin-7a (5H)-yl)methoxy)-10-fluoro-5,6-dihydro-4H-[1,4]oxazepino[5,6,7-de]quinazolin-9-yl)-7-fluorobenzo[b]thiophene-3-carbonitrile]
≥ 5.70 | ≥ 5.70 | ≥ 5.70 | ≥ 5.70 | C#CCC(c1cccnc1N)N1CCOc2c(Cl)c(-c3ccc(F)c4sc(N)c(C#N)c34)c(F)c3nc(OC[C@@]45CCCN4C[C@H](F)C5)nc1c23 (single isomer, unassigned) [Compound 764]
≥ 5.70 | ≥ 5.70 | ≥ 5.70 | ≥ 5.70 | C[C@H](c1ccc(C#N)nc1N)N1CCOc2c(Cl)c(-c3ccc(F)c4sc(N)c(C#N)c34)c(F)c3nc(OC[C@@]45CCCN4C[C@H](F)C5)nc1c23 [Compound 851, 6-amino-5-((1R)-1-(9-(2-amino-3-cyano-7-fluorobenzo[b]thiophen-4-yl)-8-chloro-10-fluoro-2-(((2R,7aS)-2-fluorotetrahydro-1H-pyrrolizin-7a(5H)-yl)methoxy)-5,6-dihydro-4H-[1,4]oxazepino[5,6,7-de]quinazolin-4-yl)ethyl)picolinonitrile]
≥ 5.70 | ≥ 5.70 | ≥ 5.70 | ≥ 5.70 | CCN1CC[C@H](OC)[C@H]1[C@H](C)Oc1nc2c3c(c(C(F)(F)F)c(-c4ccc(F)c5sc(N)c(C#N)c45)c(F)c3n1)OCCN2[C@H](C)c1cccnc1N [Compound 896, 2-amino-4-(4-((R)-1-(2-aminopyridin-3-yl)ethyl)-2-((S)-1-((2R,3S)-1-ethyl-3-methoxypyrrolidin-2-yl)ethoxy)-10-fluoro-8-(trifluoromethyl)-5,6-dihydro-4H-[1,4]oxazepino[5,6,7-de]quinazolin-9-yl)-7-fluorobenzo[b]thiophene-3-carbonitrile]
≥ 5.70 | ≥ 5.70 | ≥ 5.70 | ≥ 5.70 | C[C@H](c1cc(C2CC2)cnc1N)N1CCOc2c(Cl)c(-c3ccc(F)c4sc(N)c(C#N)c34)c(F)c3nc(OC[C@@]45CCCN4C[C@H](F)C5)nc1c23 [Compound 738, 2-amino-4-(4-((R)-1-(2-amino-5-cyclopropylpyridin-3-yl)ethyl)-8-chloro-10-fluoro-2-(((2R,7aS)-2-fluorotetrahydro-1H-pyrrolizin-7a(5H)-yl)methoxy)-5,6-dihydro-4H-[1,4]oxazepino[5,6,7-de]quinazolin-9-yl)-7-fluorobenzo[b]thiophene-3-carbonitrile]
≥ 5.70 | ≥ 5.70 | ≥ 5.70 | ≥ 5.70 | CCO/N=C/C1CN2CCC[C@@]2(COc2nc3c4c(c(Cl)c(-c5ccc(F)c6sc(N)c(C#N)c56)c(F)c4n2)OCCN3[C@H](C)c2cccnc2N)C1 (mixture of isomers) [Compound 711, 2-amino-4-(4-((R)-1-(2-aminopyridin-3-yl)ethyl)-8-chloro-2-(((7aS)-2-((E)-(ethoxyimino)methyl)tetrahydro-1H-pyrrolizin-7a(5H)-yl)methoxy)-10-fluoro-5,6-dihydro-4H-[1,4]oxazepino[5,6,7-de]quinazolin-9-yl)-7-fluorobenzo[b]thiophene-3-carbonitrile]
≥ 5.70 | ≥ 5.70 | ≥ 5.70 | ≥ 5.70 | N#Cc1c(N)sc2c(F)ccc(-c3c(C(F)(F)F)c4c5c(nc(OCC6(CN7CCC8(CC7)CC8(F)F)CC6)nc5c3F)N([C@H](CCC3CCOCC3)c3cccnc3N)CCO4)c12 [Compound 907, 2-amino-4-(4-((R)-1-(2-aminopyridin-3-yl)-3-(tetrahydro-2H-pyran-4-yl)propyl)-2-((1-((1,1-difluoro-6-azaspiro[2.5]octan-6-yl)methyl)cyclopropyl)methoxy)-10-fluoro-8-(trifluoromethyl)-5,6-dihydro-4H-[1,4]oxazepino[5,6,7-de]quinazolin-9-yl)-7-fluorobenzo[b]thiophene-3-carbonitrile]
